Experimental data as given in patent US10597388B2, “Pyridazinone herbicides” (FMC CORPORATION, priority 2014, dated 2020).

How the values were obtained:
Type in all cases: in vivo
[1] = test system: oat, wild (wild oat, Avena fatua); assay: Test C greenhouse herbicide test, postemergence
Procedure, shortened: (§1)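 Greenhouse postemergence spray on plants 2–18 cm tall; response judged visually after 13–15 d relative to untreated controls using a 0 (none) to 100 (full control) scale.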

kochia (Kochia scoparia) = assay: Test C greenhouse herbicide test, postemergence
Procedure, shortened: as §1

[2] = test system: velvetleaf (Abutilon theophrasti); assay: Test C greenhouse herbicide test, pre- and postemergence
Procedure, shortened: (§2)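 Two application timings: at sowing into a soil/sand blend, and on 2–18 cm seedlings in peat-vermiculite potting mix. A non-phytotoxic, surfactant-containing solvent carried the compounds. Plants were compared with controls and rated visually on 0–100 after 13–15 d.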

[3] = test system: morningglory (Ipomoea coccinea); assay: as above
Procedure, shortened: as §2

[4] = test system: oilseed rape (Brassica napus); assay: as above
Procedure, shortened: as §2

[5] = test system: wheat (winter wheat, Triticum aestivum); assay: as above
Procedure, shortened: as §2

[6] = test system: johnsongrass (Sorghum halepense); assay: as above
Procedure, shortened: as §2

[7] = test system: blackgrass (Alopecurus myosuroides); assay: as above
Procedure, shortened: as §2

[8] = test system: barnyardgrass (Echinochloa crus-galli); assay: as above
Procedure, shortened: as §2

[9] = test system: ragweed (common ragweed, Ambrosia elatior); assay: as above
Procedure, shortened: as §2

[10] = test system: pigweed (Amaranthus retroflexus); assay: as above
Procedure, shortened: as §2

[11] = test system: galium (catchweed bedstraw, Galium aparine); assay: as above
Procedure, shortened: as §2

soybean (Glycine max) = assay: as above
Procedure, shortened: as §2

[12] = test system: foxtail, giant (giant foxtail, Setaria faberii); assay: as above
Procedure, shortened: as §2

[13] = test system: waterhemp (common waterhemp, Amaranthus rudis); assay: as above
Procedure, shortened: as §2

corn (Zea mays) = assay: as above
Procedure, shortened: as §2

[14] = test system: crabgrass, large (large crabgrass, Digitaria sanguinalis); assay: as above
Procedure, shortened: as §2

[15] = Postemergence, 31 g ai/ha, 0 to 100 scale (0 no effect, 100 complete control)
[16] = Postemergence, 125 g ai/ha, scale 0 to 100, 0 is no effect, 100 is complete control
[17] = Postemergence, 250 g ai/ha, scale 0 to 100, 0 no effect, 100 complete control, 13 to 15 d
[18] = postemergence, 62 g ai/ha, scale 0 to 100, 0 no effect, 100 complete control
[19] = Preemergence, 31 g ai/ha, scale 0 to 100, 0 is no effect, 100 is complete control
[20] = Preemergence, 62 g ai/ha, scale 0 to 100, 0 is no effect, 100 is complete control
[21] = Preemergence, 125 g ai/ha, scale 0 to 100, 0 is no effect, 100 is complete control
[22] = Preemergence, 250 g ai/ha, scale 0 to 100 (0 no effect, 100 complete control)

## CCOC(=O)Oc1c(C)nn(C)c(=O)c1-c1c(C)ccc2ccccc12 [Compound 73]
[1]; [15]
  Oat, Wild plant response rating: 75
[1]; [16]
  Plant response rating, Oat, Wild: 95
[1]; [17]
  Plant response rating, Oat, Wild: 95
[1]; [18]
  Oat, Wild plant response rating: 90
Kochia (Kochia scoparia); [15]
  Kochia plant response rating: 90
Kochia (Kochia scoparia); [16]
  Plant response rating, Kochia: 90
Kochia (Kochia scoparia); [17]
  Plant response rating, Kochia: 100
Kochia (Kochia scoparia); [18]
  Kochia plant response rating: 90
[2]; [15]
  Velvetleaf plant response rating: 40
[2]; [16]
  Plant response rating, Velvetleaf: 85
[2]; [17]
  Plant response rating, Velvetleaf: 90
[2]; [19]
  Plant response rating, Velvetleaf: 25
[2]; [20]
  Plant response rating, Velvetleaf: 80
[2]; [21]
  Plant response rating, Velvetleaf: 85
[2]; [22]
  Velvetleaf plant response rating: 85
[2]; [18]
  Velvetleaf plant response rating: 85
[3]; [15]
  Morningglory plant response rating: 75
[3]; [16]
  Plant response rating, Morningglory: 95
[3]; [17]
  Plant response rating, Morningglory: 95
[3]; [19]
  Plant response rating, Morningglory: 85
[3]; [20]
  Plant response rating, Morningglory: 90
[3]; [21]
  Plant response rating, Morningglory: 90
[3]; [22]
  Morningglory plant response rating: 95
[3]; [18]
  Morningglory plant response rating: 90
[4]; [15]
  Oilseed Rape plant response rating: 10
[4]; [16]
  Plant response rating, Oilseed Rape: 70
[4]; [17]
  Plant response rating, Oilseed Rape: 85
[4]; [19]
  Plant response rating, Oilseed Rape: 90
[4]; [20]
  Plant response rating, Oilseed Rape: 85
[4]; [21]
  Plant response rating, Oilseed Rape: 90
[4]; [22]
  Oilseed Rape plant response rating: 85
[4]; [18]
  Oilseed Rape plant response rating: 70
[5]; [15]
  Wheat plant response rating: 10
[5]; [16]
  Plant response rating, Wheat: 35
[5]; [17]
  Plant response rating, Wheat: 40
[5]; [19]
  Plant response rating, Wheat: 0
[5]; [20]
  Plant response rating, Wheat: 20
[5]; [21]
  Plant response rating, Wheat: 35
[5]; [22]
  Wheat plant response rating: 60
[5]; [18]
  Wheat plant response rating: 30
[6]; [15]
  Johnsongrass plant response rating: 5
[6]; [16]
  Plant response rating, Johnsongrass: 40
[6]; [17]
  Plant response rating, Johnsongrass: 50
[6]; [19]
  Plant response rating, Johnsongrass: 0
[6]; [20]
  Plant response rating, Johnsongrass: 10
[6]; [21]
  Plant response rating, Johnsongrass: 35
[6]; [22]
  Johnsongrass plant response rating: 55
[6]; [18]
  Johnsongrass plant response rating: 5
[7]; [15]
  Blackgrass plant response rating: 40
[7]; [16]
  Plant response rating, Blackgrass: 90
[7]; [17]
  Plant response rating, Blackgrass: 90
[7]; [19]
  Plant response rating, Blackgrass: 50
[7]; [20]
  Plant response rating, Blackgrass: 80
[7]; [21]
  Plant response rating, Blackgrass: 85
[7]; [22]
  Blackgrass plant response rating: 90
[7]; [18]
  Blackgrass plant response rating: 85
[8]; [15]
  Barnyardgrass plant response rating: 25
[8]; [16]
  Plant response rating, Barnyardgrass: 55
[8]; [17]
  Plant response rating, Barnyardgrass: 60
[8]; [19]
  Plant response rating, Barnyardgrass: 10
[8]; [20]
  Plant response rating, Barnyardgrass: 25
[8]; [21]
  Plant response rating, Barnyardgrass: 70
[8]; [22]
  Barnyardgrass plant response rating: 85
[8]; [18]
  Barnyardgrass plant response rating: 40
[9]; [15]
  Ragweed plant response rating: 85
[9]; [16]
  Plant response rating, Ragweed: 90
[9]; [17]
  Plant response rating, Ragweed: 90
[9]; [19]
  Plant response rating, Ragweed: 85
[9]; [20]
  Plant response rating, Ragweed: 95
[9]; [21]
  Plant response rating, Ragweed: 95
[9]; [22]
  Ragweed plant response rating: 98
[9]; [18]
  Ragweed plant response rating: 90
[10]; [15]
  Pigweed plant response rating: 80
[10]; [16]
  Plant response rating, Pigweed: 95
[10]; [17]
  Plant response rating, Pigweed: 98
[10]; [19]
  Plant response rating, Pigweed: 95
[10]; [20]
  Plant response rating, Pigweed: 100
[10]; [21]
  Plant response rating, Pigweed: 100
[10]; [22]
  Pigweed plant response rating: 98
[10]; [18]
  Pigweed plant response rating: 85
[11]; [15]
  Galium plant response rating: 90
[11]; [16]
  Plant response rating, Galium: 95
[11]; [17]
  Plant response rating, Galium: 95
[11]; [19]
  Plant response rating, Galium: 90
[11]; [20]
  Plant response rating, Galium: 98
[11]; [21]
  Plant response rating, Galium: 95
[11]; [22]
  Galium plant response rating: 98
[11]; [18]
  Galium plant response rating: 90
Soybean (Glycine max); [15]
  Soybean plant response rating: 0
Soybean (Glycine max); [16]
  Plant response rating, Soybean: 25
Soybean (Glycine max); [17]
  Plant response rating, Soybean: 45
Soybean (Glycine max); [19]
  Plant response rating, Soybean: 0
Soybean (Glycine max); [20]
  Plant response rating, Soybean: 0
Soybean (Glycine max); [21]
  Plant response rating, Soybean: 0
Soybean (Glycine max); [22]
  Soybean plant response rating: 0
Soybean (Glycine max); [18]
  Soybean plant response rating: 15
[12]; [15]
  Foxtail, Giant plant response rating: 40
[12]; [16]
  Plant response rating, Foxtail, Giant: 75
[12]; [17]
  Plant response rating, Foxtail, Giant: 85
[12]; [19]
  Plant response rating, Foxtail, Giant: 55
[12]; [20]
  Plant response rating, Foxtail, Giant: 70
[12]; [21]
  Plant response rating, Foxtail, Giant: 85
[12]; [22]
  Foxtail, Giant plant response rating: 95
[12]; [18]
  Foxtail, Giant plant response rating: 65
[13]; [15]
  Waterhemp plant response rating: 75
[13]; [16]
  Plant response rating, Waterhemp: 85
[13]; [17]
  Plant response rating, Waterhemp: 100
[13]; [19]
  Plant response rating, Waterhemp: 85
[13]; [20]
  Plant response rating, Waterhemp: 90
[13]; [21]
  Plant response rating, Waterhemp: 90
[13]; [22]
  Waterhemp plant response rating: 95
[13]; [18]
  Waterhemp plant response rating: 75
Corn (Zea mays); [15]
  Corn plant response rating: 5
Corn (Zea mays); [16]
  Plant response rating, Corn: 20
Corn (Zea mays); [17]
  Plant response rating, Corn: 60
Corn (Zea mays); [19]
  Plant response rating, Corn: 0
Corn (Zea mays); [20]
  Plant response rating, Corn: 0
Corn (Zea mays); [21]
  Plant response rating, Corn: 5
Corn (Zea mays); [22]
  Corn plant response rating: 25
Corn (Zea mays); [18]
  Corn plant response rating: 20
[14]; [15]
  Crabgrass, Large plant response rating: 30
[14]; [16]
  Plant response rating, Crabgrass, Large: 60
[14]; [17]
  Plant response rating, Crabgrass, Large: 75
[14]; [19]
  Plant response rating, Crabgrass, Large: 0
[14]; [20]
  Plant response rating, Crabgrass, Large: 30
[14]; [21]
  Plant response rating, Crabgrass, Large: 75
[14]; [22]
  Crabgrass, Large plant response rating: 75
[14]; [18]
  Crabgrass, Large plant response rating: 35
